Results taken from patent publication US7906520B2, “Methods for treating pain” (The General Hospital Corporation, priority 2003, dated 2011).

Tests used:
GTP cyclohydrolase I = settings: cited from earlier work; for potency as GTP cyclohydrolase I inhibitor relative to oxidized pterins: more potent than oxidized pterins; for Ki: read-out: Ki, noncompetitive inhibitor of GTP cyclohydrolase I
SNI model = test: SNI model, L-NAME versus DAHP; assay type: in vivo
Experimental: In this figure, closed circles represent nNOS knockout mice with DAHP; open circles, nNOS knock out mice with vehicle; closed triangles, wild type mice with DAHP; and open triangles, wild type mice with vehicle. […] In this figure, closed triangles represent L-NAME administration; open circles, L-NAME+DAHP administration; closed circles, DAHP administration; and open triangles, vehicle administration. L-NAME was administered at 25 mg/kg, i.p., single dose, and DAHP was administered at 120 mg/kg, i.p., single dose. The antinociceptive efficacy of this high L-NAME dose is weaker (about 50%) than that of a moderate dose of DAHP.

sepiapterin reductase = settings: cited from earlier work
[1] = test system: CFA-induced paw inflammation; test: CFA model of inflammatory pain: Hargreaves test and paw weight; assay type: in vivo, rat; settings: NAS 50 mg/kg i.p.
Experimental: FIGS. 11A-11E are a series of graphs showing the effect of DHAP on thermal hyperalgesia in the CFA model which is a model for inflammatory pain. […] On the left end of the graph, two doses of DAHP (180 mg/kg i.p.) were injected, the first 30 minutes before injection of CFA into the hindpaw, the second 4 hours after CFA (indicated with arrows D1 and D2). On the right, a single dose (dotted arrow D1) of DAHP (180 mg/kg i.p.) was injected 24 h after induction of paw inflammation without any treatment during the first 24 h following CFA injection. […] In FIGS. 11C-11D, the effects of systemically administered DAHP (180 mg/kg i.p. single dose; 11C) are compared with the effects of a single intrathecal dose (1 mg/kg i.t.; 11D) which was administered via a lumbar spinal catheter. In both cases, treatment was started 24 hours after CFA injection into the hindpaw. Because of slightly different baseline levels (11C compared with 11D) effects of DAHP after i.p. and i.t. treatment are additionally presented as percentage change of paw withdrawal latency (FIG. 11E) to allow for a direct comparison of both routes of administration.
FIG. 12 is a bar graph showing the increase of the paw weight of the inflamed paw compared with the contralateral paw. Paw weight was determined 48 hours following CFA injection. The increase of the paw weight is a measure for the inflammatory paw edema and therefore allows assessment of paw inflammation.
FIGS. 15A and 15B show the effect of the sepiapterin reductase inhibitor, N-acetyl-serotonin (NAS) on thermal hyperalgesia in the CFA model. The paw withdrawal latency (PWL) to radiant heat (Hargreaves test) is a measure for the heat sensitivity. NAS treatment (single dose of 50 mg/kg i.p.) was started 24 hours after CFA injection into the hindpaw. Data are presented as percentage change of the PWL compared with the PWL of the non-inflamed contralateral paw. […] Paw weight was determined 48 hours following CFA injection. The increase of the paw weight is a measure for the inflammatory paw edema.
Hypersensitivity was induced using the CFA model of paw inflammation. In these experiments, BH4 was injected at time “zero” after measurement of baseline paw withdrawal latency.

[2] = test system: SNI model of neuropathic pain; test: Spared nerve injury (SNI) model of neuropathic pain, von Frey and acetone tests; assay type: in vivo
Experimental: FIGS. 8A-8D represent a series of graphs showing the effect of DAHP on nociceptive behavior in the SNI model of neuropathic pain. Figures on the left show the threshold to mechanical stimuli applied with von Frey hairs (von Frey threshold). Figures on the right show the duration of paw licking, shaking and lifting following acetone application to the paw as a measure for cold allodynia. In FIG. 8A, rats were treated with DAHP (180 mg/kg/d i.p.) for three days starting three days after surgery (early treatment). Nociceptive behavior was assessed daily before and after drug injection. In FIG. 8B, the treatment period was extended to five days (180 mg/kg/d i.p.) starting three days after surgery and pain behavior was assessed daily before and after drug injection and once every second day for an additional week after stopping the daily drug injections. In FIG. 8C, treatment with DAHP (180 mg/kg/d i.p. for 5 days) was started 17 days after surgery i.e. in the chronic phase without any treatment in the early phase. Nociceptive behavior was assessed once daily 3 h after drug injection. In FIG. 8D, animals received a continuous spinal infusion of DAHP (6 mg/kg/d) for 14 days. The infusion was started directly after surgery. Nociceptive behavior was assessed once daily.
FIGS. 16A-16D show the effects of systemic (16A) and intrathecal (16B) treatment with methotrexate (MTX) on the nociceptive behavior in the SNI model of neuropathic pain. […] In FIG. 16A MTX (0.2 mg/kg/d) was injected i.p. once daily starting 5 days after SNI surgery. Nociceptive behavior was assessed once daily three hours after drug injection. In FIG. 16B, MTX was administered as continuous intrathecal infusion (0.1 mg/kg/d for 14 days) starting right after SNI surgery. Nociceptive behavior was assessed once daily. FIGS. 16C and 16D show the body weight gain of animals during systemic (16C) and intrathecal (16D) MTX treatment. Determination of the weight gain was used to assess general well-being and potential toxic effects of MTX.
In this graph, closed triangles represent vehicle, i.p.; open triangles represent DAHP at 90 mg/kg/day, i.p.; open squares represent DAHP at 180 mg/kg/day, i.p.; and open circles represent DAHP at 270 mg/kg/day, i.p.
All procedures were performed in accordance with Massachusetts General Hospital animal care regulations. Adult male Sprague Dawley rats (200-300 g) were anesthetized with halothane. For the sciatic nerve transection (axotomy), the left sciatic nerve was exposed at the mid thigh level, ligated with 3/0 silk, and sectioned distally. The wound was sutured in two layers, and the animals were allowed to recover. For SNI the tibial and peroneal branch of the sciatic nerve were ligated and transected whereas the sural nerve was spared. For CCI, the sciatic nerve was loosely ligated with dexon 4/0 (three ligatures) and for the spinal ligation model the L5 spinal segmental nerve was ligated.

[3] = systemically administered, low doses; cited from earlier work

C[C@H](O)[C@H](O)[C@@H]1CNc2nc(N)[nH]c(=O)c2N1 [6S-BH4]
effectiveness relative to BH4 (GTP cyclohydrolase I; feedback inhibition of GTPCH): more than one order of magnitude less effective

C[C@H](O)[C@H](O)C1=Nc2c(nc(N)[nH]c2=O)NC1 [7,8-dihydro-L-Biopterin]
potency as GTP cyclohydrolase I inhibitor relative to oxidized pterins (GTP cyclohydrolase I): approximately 12 times | Ki (GTP cyclohydrolase I): 14.4 µM

COC(=O)[C@@H](N)CCCNC(=N)N[N+](=O)[O-] [L-NAME, N^G-Nitro-L-arginine-methyl ester]
effect of L-NAME co-injection on efficacy of DAHP (SNI model; L-NAME 25 mg/kg i.p. + DAHP 120 mg/kg i.p.): does not further increase the efficacy of DAHP | antinociceptive efficacy relative to a moderate dose of DAHP (SNI model; L-NAME 25 mg/kg i.p. single dose, weaker than DAHP): about 50%

C[C@H](O)C(=O)C1=Nc2c(nc(N)[nH]c2=O)NC1 [L-Sepiapterin]
potency as GTP cyclohydrolase I inhibitor relative to oxidized pterins (GTP cyclohydrolase I): 12 times | IC50 (GTP cyclohydrolase I; read-out: IC50, GTP cyclohydrolase I inhibitor): 12.7 ± 1.8 µM

O=C(CCl)NCCc1ccc(O)c(O)c1 [N-Chloroacetyldopamine]
potency as sepiapterin reductase inhibitor relative to NAS (sepiapterin reductase): increased potency

O=C(CCl)NCCc1c[nH]c2ccc(O)cc12 [N-Chloroacetylserotonin]
potency as sepiapterin reductase inhibitor relative to NAS (sepiapterin reductase): increased potency

COCC(=O)NCCc1c[nH]c2ccc(O)cc12 [N-Methoxyacetylserotonin]
potency as sepiapterin reductase inhibitor relative to NAS (sepiapterin reductase): increased potency

CC(=O)NCCc1c[nH]c2ccc(O)cc12 [NAS, N-acetyl-serotonin]
CFA-induced inflammatory paw edema [1]: no effect | thermal hyperalgesia ([1]; 24 hours after CFA): reduction of thermal hyperalgesia

C[C@H](O)[C@H](O)[C@H]1CNc2nc(N)[nH]c(=O)c2N1 [Tetrahydro-L-biopterin]
Ki (GTP cyclohydrolase I): 15.7 µM

Nc1nc2nc[nH]c2c(=O)[nH]1 [guanine]
GTPCH inhibitory potency relative to DAHP (GTP cyclohydrolase I; higher potency than DAHP): approximately 10 fold

CN(Cc1cnc2nc(N)nc(N)c2n1)c1ccc(C(=O)N[C@@H](CCC(=O)O)C(=O)O)cc1 [methotrexate]
pain in response to mechanical and cold allodynia ([2]; MTX 0.2 mg/kg/d i.p. or 0.1 mg/kg/day continuous lumbar spinal delivery): reduction in pain | acute toxicity (body weight change over time) ([2]; MTX systemic or intrathecal): absence of detectable acute toxicity | blood brain barrier penetration [3]: does not penetrate the blood brain barrier
